Reference: US9073982B2, “Targets for regulation of angiogenesis” (The University of North Carolina at Chapel Hill, priority 2008, dated 2015)
Entries after “also recorded” stand apart in the source; their conditions may differ.

What was measured:
[1] = tested on: mouse endothelial cells (MEC); experiment: Endothelial cell tube formation assay, MEC cells; type: cell-based; conditions: for inhibition of SFRP2 induced tube formation: SFRP2 7 nM or 30 nM, tacrolimus 1 μM-100 uM, 8 hours
Procedure: The tube formation properties of SFRP2 on mouse endothelial cells (MEC) cells were evaluated using an endothelial cell tube formation assay. ECMATRIX (Chemicon) was thawed, diluted and solidified in a 96 well plate according to the manufacturer's instructions. 1×10^4 cells/well in 150 μl of DMEM (celigro) with 10% FBS (HyClone) and a concentration range (7-7000 pM) of SFRP2 (US Biologicals) were seeded onto the matrix and returned to 37° C., 5% CO2 for 8 hours. Images were acquired using the Nikon Eclipse TS100 microscope at 4× magnification with a Nikon CoolPix 995 digital camera. Results were quantified by counting the number of branch points.
(§1) To evaluate whether tacrolimus inhibits SFRP2 induced tube formation, MEC cells were treated as above with SFRP2 7 nM with and without tacrolimus 100 uM for 8 hours and branch points were determined as described above. To evaluate whether tacrolimus reversed established tubes, cells were incubated with SFRP2 7 nM for 8 hours and then BSA or tacrolimus 100 μM was added to SFRP2 treated cells for an additional 4 hours, and then the number of branch points were counted. […] Tacrolimus was not cytotoxic to MEC cells, as only 5% of tacrolimus-treated cells took up trypan blue dye (data not shown).
(§2) The tube formation properties of SFRP2 on MEC cells were evaluated using an endothelial cell tube formation assay. ECMATRIX (Chemicon) was thawed, diluted and solidified in a 96 well plate according to the manufactures instructions. 1×10^4 cells/well in 150 μl of DMEM (cellgro) with 10% FBS (HyClone) and a concentration range (3-3000 pM) of SFRP2 (US Biologicals) were seeded onto the matrix and returned to 37° C., 5% CO2 for 8 hours. Images were acquired using the Nikon Eclipse TS100 microscope at 4× magnification with a Nikon CoolPix 995 digital camera. Results were quantified by counting the number of branch point. To evaluate whether tacrolimus inhibits SFRP2 induced tube formation, MEC cells were treated as above with SFRP2 30 nM with and without tacrolimus (1 μM-100 uM) for 8 hours and branch points were determined as described above. To evaluate whether inhibitors of SFRP2-mediated angiogenesis would inhibit the growth of SVR tumor cells, SVR cells were treated with tacrolimus (1 μM-100 μM) or with a rabbit polyclonal antibody to SFRP-2 (H-140) (Santa Cruz Biotechnology, Santa Cruz, Calif., catalogue 4 sc-13940) in the tube formation assay.

2H11 cells = experiment: 2H11 endothelial MATRIGEL tube formation assay; type: cell-based, mouse; conditions: for inhibition of SFRP2 stimulated endothelial tube formation: SFRP2 stimulated 2H11 cells; for inhibition of VEGF stimulated endothelial tube formation: VEGF stimulated 2H11 cells
Source text: The ability for tacrolimus to inhibit SFRP2 and VEGF stimulated 2H11 endothelial tube formation in vitro was studied in a MATRIGEL tube formation assay.

SVR angiosarcoma cells = experiment: SVR angiosarcoma cell tube formation assay; type: cell-based, mouse; conditions: for inhibition of SVR tube formation by sera compared to control mouse sera: sera at 1:100 dilution
Procedure: as §2
As a further test of the contribution of SFRP2 to endothelial tube formation, it was evaluated whether loss of function of SFRP2 would inhibit SVR angiosarcoma tube formation. This was studied two different ways, first with a blocking antibody to SFRP2, and then using siRNA to SFRP2. SVR cells were plated in MATRIGEL in a tube formation assay and treated with a polyclonal antibody to SFRP2. […] After 72 h of transfection using LIPOFECTAMINE™ RNAiMAX Transfection reagent (Invitrogen) according to the manufacturer's protocol, cells were harvested and ready for Western blot analyses and tube formation assay.
Monoclonal antibodies for the epitope corresponding to AbB (AA202-AA220) were prepared. […] The angiosarcoma cells were suspended in 150 μl of antibody containing growth media for 90 different samples and control media, After 6 hours, pictures were taken and the number of branch points for each well was counted. […]

[2] = tested on: MMTV-neu transgenic mouse tumors; experiment: MMTV-neu transgenic mouse tumor growth; type: in vivo
Procedure: In a second study, MMTV-neu transgenic mice were treated with tacrolimus 3 mg/kg/daily or no treatment. Treatment began when tumors were palpable and continued for 21 days. Tumor volumes were monitored with serial ultrasounds. A two-tailed T-test was used to determine the difference between growth rates of the tumors between treated and non-treated tumors.

[3] = tested on: SVR angiosarcoma xenografts; experiment: SVR angiosarcoma xenografts in nude mice; type: in vivo; conditions: for growth of SVR angiosarcoma xenografts: nude mice
Procedure: To test the ability of tacrolimus to inhibit angiogenesis in vivo, SVR mouse angiosarcoma cells (0.5×10^6) were injected into the flank of 6-week-old nude male mice obtained from Charles River Breeding Laboratories. Treatment was initiated on the day after inoculation. Mice received 3 mg/kg/daily tacrolimus or vehicle control suspended in 20% Intralipid (Baxter Healthcare, Deerfield, Ill.) in a total volume of 0.3 ml intraperitoneally (i.p.), and were treated daily for 19 days. Serial caliper measurements of perpendicular diameters were used to calculate tumor volume using the following formula: (shortest diameter)^2×(longest diameter)×0.52. Differences in tumor volume over time were analyzed with a two way ANOVA. A P value of ≦0.05 indicated a statistically significant reduction in tumor growth of the treated group compared to the control group. […] Treatment with tacrolimus reduced mean tumor volume by 46% at day 19 (589±129 mm^3 vs 315±93 mm^3, two-way ANOVA, p=0.04, FIG. 26).
The ability of a monoclonal antibody recognizing SFRP2 to inhibit tumor growth in vivo was tested in a nude mouse assay. The SFRP2 MAb subclone 80.8.6 was first tested with SVR angiosarcoma xenografts. Six week old nude mice were injected with 1×10^6 SVR angiosarcoma cells. The day after injections treated mice received SFRP2 MAb(80.8.6) 4 mg/kg i.v. twice weekly (n=5), and controls received equal volumes of buffer. At day 14 there was a 65% decrease in tumor volume (*p=0.03, two-tailed student's t-test) (FIG. 34).

MEC cells = experiment: Trypan blue uptake (cytotoxicity) in MEC cells; type: cell-based, mouse; conditions: tacrolimus-treated MEC cells
Procedure: as §1

[4] = tested on: MDA-MB-231 breast cancer xenografts; experiment: MDA-MB-231 breast cancer xenografts in nude mice; type: in vivo; conditions: 4 mg/kg i.v. twice weekly
Procedure: The SFRP2 MAb subclone 80.8.6 was next tested with MDA-MB-231 breast cancer xenografts. Six week old female nude mice were injected with 1×10^6 MDA-MB-231 cells. After 4 weeks, when tumors were palpable, mice received SFRP2 MAb (80.8.6) 4 mg/kg i.v. twice weekly (n=12), and controls received equal volumes of buffer. At day 8 the median tumor volume for controls was 1200 mm^3, and for SFRP2 MAb treated mice was 580 mm^3, which represents a 52% decrease in tumor volume (p=0.04, two-tailed student's t-test).

[5] = tacrolimus 3 mg/kg/daily i.p., day 19

In the case of `C=CC[C@@H]1/C=C(\C)C[C@H](C)C[C@H](OC)[C@H]2O[C@@](O)(C(=O)C(=O)N3CCCC[C@H]3C(=O)O[C@H](/C(C)=C/[C@@H]3CC[C@@H](O)[C@H](OC)C3)[C@H](C)[C@@H](O)CC1=O)[C@H](C)C[C@@H]2OC` [tacrolimus], the inhibition at 1 µM ([1]; Mus musculus, Endothelial cell, tacrolimus 1 μM, SFRP2 30 nM, read-out: inhibition of SFRP2 induced tube formation) is reported as 64%, the “reversal of established SFRP2-induced tubes” value ([1]; SFRP2 7 nM 8 hours, then tacrolimus 100 μM for 4 hours) is reported as “reversed SFRP2-induced tube formation; also recorded: reverses SFRP2-induced mouse endothelial cell tube formation” and the “inhibition of SFRP2 induced tube formation” value [1] is reported as “inhibits SFRP2-induced mouse endothelial cell tube formation; also recorded: inhibits tube formation in SFRP2-induced MEC cells”. For the same molecule, the “inhibition of SFRP2 induced tube formation” value ([1]; listed as Tacrolimus) was “inhibited SFRP2 induced tube formation”, the “inhibition of SFRP2 stimulated endothelial tube formation” value (2H11 cells) was “inhibits SFRP2-induced mouse endothelial cell tube formation” and the “inhibition of SFRP2 stimulated endothelial tube formation” value (2H11 cells; listed as Tacrolimus) was “inhibited endothelial tube formation”. For the same molecule, the “inhibition of VEGF stimulated endothelial tube formation” value (2H11 cells) was “inhibits VEGF-induced mouse endothelial cell tube formation”, the “inhibition of VEGF stimulated endothelial tube formation” value (2H11 cells; listed as Tacrolimus) was “inhibited endothelial tube formation” and the “inhibition of SVR angiosarcoma tube formation” value (SVR angiosarcoma cells) was “inhibited by tacrolimus; also recorded: inhibits tube formation in SVR angiosarcoma cells”. The “growth rate of MMTV-neu tumors” value ([2]; mouse, in vivo) was “inhibits the growth rate”, the “signs of toxicity (diarrhea, infection, lethargy, weight loss)” value ([2]; tacrolimus 3 mg/kg/daily, 21 days) was “no signs of toxicity” and the “reduction in tumor growth rate” value ([2]; tacrolimus 3 mg/kg/daily, day 21) was 59%. The “growth of SVR angiosarcoma xenografts” value [3] was “effective at suppressing the growth; also recorded: inhibits the growth”, the “signs of toxicity (diarrhea, infection, lethargy, weight loss)” value ([3]; tacrolimus 3 mg/kg/daily i.p., 19 days) was “no signs of toxicity” and the mean tumor volume [3, 5] was 315±93 mm^3. The “reduction of mean tumor volume” value [3, 5] was 46% and the “treated cells that took up trypan blue dye” value (MEC cells) was 5%.

With “AbB: sera from mouse immunized against SFRP2 epitope amino acids AA202-AA220 (EITYINRDTKIILETKSKTC)” the “inhibition of SVR tube formation by sera compared to control mouse sera” value (SVR angiosarcoma cells) was “inhibited SVR tube formation; also recorded: greatest inhibition”.

With “AbC: sera from mouse immunized against SFRP2 epitope amino acids AA270-AA295 (ITSVKRWQKGQREFKRISRSIRKLQC)” the “inhibition of SVR tube formation by sera compared to control mouse sera” value (SVR angiosarcoma cells) was “inhibited SVR tube formation; also recorded: greatest inhibition”.

B1: SFRP2 MAb (80.8.6): monoclonal antibody produced by hybridoma cell line UNC 68-80 (subclone 80.8.6), ATCC PTA-11762; VH SEQ ID NO:13, VL SEQ ID NO:15 (antibody, V domains shown)
VH: QVQLQQPGAELVQPGASVMLSCKASGFTFTRYWWHWVRQTPGRGLEWIGRIDPNSGTTRFIEKFKTKATLTVDKPSSTAYMHLSSLTSEDSAVYYCARWGPYYGYAMDYWGPGTSVTVSS
VL: QIVLTQSPAIMSASPGQKVTITCSASSSVTYMHWYQQKLGSSPKLWIYDTSRLAPGSPARFSGSGSGTSYSLTISSMETEDAASYFCHQWSTYPPTFGTGTKLEIQ
modifications: Heavy chain variable region sequence; Light chain variable region sequence
In the case of B1, the “toxicity or weight loss” value [4] is reported as “No toxicity or weight loss”, the “decrease in tumor volume” value ([4]; day 8) is reported as 52% and the median tumor volume ([4]; day 8) is reported as 580 mm^3. For the same molecule, the “toxicity or weight loss” value ([3]; 4 mg/kg i.v. twice weekly) was “No toxicity or weight loss”, the “decrease in tumor volume” value ([3]; 4 mg/kg i.v. twice weekly, day 14) was 65% and the “growth of SVR angiosarcoma xenografts” value [3] was “inhibits the growth”.
